{
  "source": "patent US20160115540A1",
  "about": "“PRODRUGS AND DRUGS” (Biogen MA Inc., priority 2013, published 2016)",
  "tested_on": "striatum",
  "assay": "Transcriptional profiling on Affymetrix GeneChips, single dose, naïve mice: striatum",
  "assay_type": "in vivo, C57BL/6 mice",
  "settings": "for Number of differentially expressed genes identified: Striatum: Naïve, Single Dose; for Aox1 (1419435_PM_at) differential expression: 7 hr; for differentially expressed genes: 100DMF-vs-100MMF",
  "procedure": "Treated mice were sacrificed at 2, 7, or 12 hours. Tissues (liver, spleen, kidney, jejunum, cortex, hippocampus, striatum and whole blood) were collected and analyzed by transcriptional profiling on mouse Affymetrix GeneChips.\nTissues (liver, spleen, kidney, jejunum, cortex, hippocampus, striatum and whole blood) were collected and analyzed by transcriptional profiling on mouse Affymetrix GeneChips.\nAnimals were exposed to CO2 and whole blood collected via cardiac puncture. Two 100 μl aliquots of whole blood were collected in 1.5 mL microcentrifuge tubes and snap frozen in liquid nitrogen. Peripheral (liver, spleen, kidney and jejunum) and CNS brain (cerebellum, hippocampus, striatum and cortex) tissues were harvested and snap frozen in liquid nitrogen, with special care taken to collect tissues of similar size and from the same location. All samples were stored at −80° C. until RNA extraction was conducted.\nFor RNA preparation, frozen tissues were placed in 2 mL RNAse-free 96-well blocks with 1.5 mL QIAzol Lysis Reagent (QIAgen) and a 3.2 mm stainless steel bead (BioSpec Products, Bartlesville, Okla.). Tissues were disrupted for four cycles of 45 seconds in a Mini-Beadbeater (Biospec Products). RNA was extracted in chloroform and the aqueous phase was mixed with an equal volume of 70% ethanol. Extracted RNA was applied to RNeasy 96 plates and purified by the spin method according to the manufacturer's protocol (RNeasy 96 Universal Tissue Protocol, QIAgen, Hilden Germany).\nAutomated sample amplifications and biotin labelings were carried out using the NuGEN Ovation RNA Amplification system V2 (Cat #3100), Ovation WB reagent (Cat #1300) and Encore Biotin module (Cat #4200) (NuGEN Technologies, Inc, San Carlos, Calif.) according to manufacturer's recommendations using an Arrayplex automated liquid handler (Beckman Coulter, Indianapolis, Ind.). Two micrograms of biotin labeled sscDNA probe were hybridized to Affymetrix GeneChip Affymetrix HT_MG-430_PM plate arrays with modified conditions as described in Allaire et al. Washing and staining of the hybridized arrays were completed as described in the GeneChip Expression analysis technical manual for HT plate arrays using the Genechip® Array Station (Affymetrix, Santa Clara, Calif.) with modifications as described in Allaire et al. The processed GeneChip® plate arrays were scanned using GeneTitan scanner (Affymetrix, Santa Clara, Calif.).\nAffymetrix scans were subject to quality control (QC) measures. These tests included a visual inspection of the distribution of raw signal intensities and an assessment of RNA degradation, relative log expression (RLE), and normalized unsealed standard error (NUSE). All sample scans that passed these QC metrics were included in the analysis.\nAll CEL files were subjected to GC-content-based Robust Multi-array Average (GCRMA) normalization (version 2.20.0) (Irizarry R A, et al. Nucleic Acids Res 2003; 31:e15; Li C, et al. Genome Biol 2001; 2:[…]0032). Expression levels were log (base 2) transformed.\nAll calculations and analyses were carried out using R (version 2.11.1) and Bioconductor computational tools (Gentleman R. Springer Science+Business Media 2005).",
  "key": {"[1]": {"settings": "100 mpk, vs Vehicle, 2 h after last dosing"}, "[2]": {"settings": "100 mpk, vs Vehicle, 7 h after last dosing"}, "[3]": {"settings": "100 mpk, vs Vehicle, 12 h after last dosing"}, "[4]": {"settings": "striatum, 2 hr after single 100 mg/kg oral dose"}, "[5]": {"settings": "striatum, 12 hr after single 100 mg/kg oral dose"}},
  "note": "Where a name gives a salt, the structure may show the parent alone.",
  "data": [
    {"smiles": "COC(=O)/C=C/C(=O)OC", "note": "[DMF, dimethyl fumarate]", "values": [
      {"measurement": "Number of differentially expressed genes identified: Striatum", "setting": "100 mpk DMF-vs-100 mpk MMF, 2 h after last dosing", "result": 0},
      {"measurement": "Number of differentially expressed genes identified: Striatum", "setting": "100 mpk DMF-vs-100 mpk MMF, 7 h after last dosing", "result": 0},
      {"measurement": "Number of differentially expressed genes identified: Striatum", "setting": "100 mpk DMF-vs-100 mpk MMF, 12 h after last dosing", "result": 0},
      {"measurement": "Number of differentially expressed genes identified: Striatum", "setting": "[1]", "result": 4},
      {"measurement": "Number of differentially expressed genes identified: Striatum", "setting": "[2]", "result": 2},
      {"measurement": "Number of differentially expressed genes identified: Striatum", "setting": "[3]", "result": 2},
      {"measurement": "Number of genes, DMF Only / MMF Only", "setting": "Striatum", "result": 5},
      {"measurement": "Gtpbp10 (1434030_PM_at) differential expression", "setting": "Striatum, 2 hr", "result": "−1.52"},
      {"measurement": "Kdm3b (1428320_PM_at) differential expression", "setting": "Striatum, 2 hr", "result": "−1.54"},
      {"measurement": "Mkln1 (1416734_PM_at) differential expression", "setting": "Striatum, 2 hr", "result": "−1.97"},
      {"measurement": "Ptprg (1456070_PM_at) differential expression", "setting": "Striatum, 2 hr", "result": "−1.54"},
      {"measurement": "Aox1 (1419435_PM_at) differential expression", "setting": "Striatum", "result": 1.64},
      {"measurement": "Nfia (1438236_PM_at) differential expression", "setting": "Striatum, 12 hr", "result": "−1.53"},
      {"measurement": "Zeb2 (1422748_PM_at) differential expression", "setting": "Striatum, 12 hr", "result": "−1.66"},
      {"measurement": "differentially expressed genes", "setting": "striatum, 2 h", "result": "None"},
      {"measurement": "differentially expressed genes", "setting": "striatum, 7 h", "result": "None"},
      {"measurement": "differentially expressed genes", "setting": "striatum, 12 h", "result": "None"},
      {"measurement": "FC Gtpbp10 (1434030_PM_at)", "setting": "striatum, 100DMF-vs-Veh, 2 h", "result": "−1.52"},
      {"measurement": "FC Kdm3b (1428320_PM_at)", "setting": "striatum, 100DMF-vs-Veh, 2 h", "result": "−1.54"},
      {"measurement": "FC Mkln1 (1416734_PM_at)", "setting": "striatum, 100DMF-vs-Veh, 2 h", "result": "−1.97"},
      {"measurement": "FC probe 1444791_PM_at", "setting": "striatum, 100DMF-vs-Veh, 2 h", "result": "−1.60"},
      {"measurement": "FC Aox1 (1419435_PM_at)", "setting": "striatum, 100DMF-vs-Veh, 7 h", "result": 1.64},
      {"measurement": "FC probe 1443353_PM_at", "setting": "striatum, 100DMF-vs-Veh, 7 h", "result": "−1.83"},
      {"measurement": "FC Nfia (1438236_PM_at)", "setting": "striatum, 100DMF-vs-Veh, 12 h", "result": "−1.53"},
      {"measurement": "FC Zeb2 (1422748_PM_at)", "setting": "striatum, 100DMF-vs-Veh, 12 h", "result": "−1.66"}
    ]},
    {"smiles": "COC(=O)/C=C/C(=O)O", "note": "[MMF, monomethyl fumarate]", "values": [
      {"measurement": "Number of differentially expressed genes identified: Striatum", "setting": "[1]", "result": 6},
      {"measurement": "Number of differentially expressed genes identified: Striatum", "setting": "[2]", "result": 1},
      {"measurement": "Number of differentially expressed genes identified: Striatum", "setting": "[3]", "result": 7},
      {"measurement": "Number of genes, DMF Only / MMF Only", "setting": "Striatum", "result": 12},
      {"measurement": "Gna13 (1422556_PM_at) differential expression", "setting": "Striatum, 2 hr", "result": "−1.63"},
      {"measurement": "Golga3 (1449616_PM_s_at) differential expression", "setting": "Striatum, 2 hr", "result": "−1.63"},
      {"measurement": "Grin2a (1421616_PM_at) differential expression", "setting": "Striatum, 2 hr", "result": "−1.78"},
      {"measurement": "Kdm3b (1428320_PM_at) differential expression", "setting": "Striatum, 2 hr", "result": "−1.56"},
      {"measurement": "Lrrc41 (1427125_PM_s_at) differential expression", "setting": "Striatum, 2 hr", "result": "−1.54"},
      {"measurement": "Top2b (1448458_PM_at) differential expression", "setting": "Striatum, 2 hr", "result": "−1.56"},
      {"measurement": "Aox1 (1419435_PM_at) differential expression", "setting": "Striatum", "result": 1.95},
      {"measurement": "Adamts9 (1437785_PM_at) differential expression", "setting": "Striatum, 12 hr", "result": "−2.58"},
      {"measurement": "Galnt12 (1437760_PM_at) differential expression", "setting": "Striatum, 12 hr", "result": 1.50},
      {"measurement": "Hrh3 (1448807_PM_at) differential expression", "setting": "Striatum, 12 hr", "result": 1.59},
      {"measurement": "Itpkb (1435272_PM_at) differential expression", "setting": "Striatum, 12 hr", "result": "−1.56"},
      {"measurement": "Pvrl3 (1457257_PM_x_at) differential expression", "setting": "Striatum, 12 hr", "result": "−1.80"},
      {"measurement": "St18 (1455123_PM_at) differential expression", "setting": "Striatum, 12 hr", "result": "−1.69"},
      {"measurement": "Tmprss6 (1428676_PM_at) differential expression", "setting": "Striatum, 12 hr", "result": 1.68},
      {"measurement": "FC Golga3 (1449616_PM_s_at)", "setting": "striatum, 100MMF-vs-Veh, 2 h", "result": "−1.63"},
      {"measurement": "FC Grin2a (1421616_PM_at)", "setting": "striatum, 100MMF-vs-Veh, 2 h", "result": "−1.78"},
      {"measurement": "FC Kdm3b (1428320_PM_at)", "setting": "striatum, 100MMF-vs-Veh, 2 h", "result": "−1.56"},
      {"measurement": "FC Lrrc41 (1427125_PM_s_at)", "setting": "striatum, 100MMF-vs-Veh, 2 h", "result": "−1.54"},
      {"measurement": "FC Top2b (1448458_PM_at)", "setting": "striatum, 100MMF-vs-Veh, 2 h", "result": "−1.56"},
      {"measurement": "FC probe 1442867_PM_at", "setting": "striatum, 100MMF-vs-Veh, 2 h", "result": "−1.57"},
      {"measurement": "FC Aox1 (1419435_PM_at)", "setting": "striatum, 100MMF-vs-Veh, 7 h", "result": 1.95},
      {"measurement": "FC Adamts9 (1437785_PM_at)", "setting": "striatum, 100MMF-vs-Veh, 12 h", "result": "−2.58"},
      {"measurement": "FC Galnt12 (1437760_PM_at)", "setting": "striatum, 100MMF-vs-Veh, 12 h", "result": 1.50},
      {"measurement": "FC Hrh3 (1448807_PM_at)", "setting": "striatum, 100MMF-vs-Veh, 12 h", "result": 1.59},
      {"measurement": "FC Itpkb (1435272_PM_at)", "setting": "striatum, 100MMF-vs-Veh, 12 h", "result": "−1.56"},
      {"measurement": "FC Pvrl3 (1457257_PM_x_at)", "setting": "striatum, 100MMF-vs-Veh, 12 h", "result": "−1.80"},
      {"measurement": "FC St18 (1455123_PM_at)", "setting": "striatum, 100MMF-vs-Veh, 12 h", "result": "−1.69"},
      {"measurement": "FC Tmprss6 (1428676_PM_at)", "setting": "striatum, 100MMF-vs-Veh, 12 h", "result": 1.68},
      {"measurement": "Gna13 mRNA fold change vs vehicle", "setting": "[4]", "result": "−1.63"},
      {"measurement": "Golga3 mRNA fold change vs vehicle", "setting": "[4]", "result": "−1.63"},
      {"measurement": "Grin2a mRNA fold change vs vehicle", "setting": "[4]", "result": "−1.78"},
      {"measurement": "Kdm3b mRNA fold change vs vehicle", "setting": "[4]", "result": "−1.56"},
      {"measurement": "Lrrc41 mRNA fold change vs vehicle", "setting": "[4]", "result": "−1.54"},
      {"measurement": "Top2b mRNA fold change vs vehicle", "setting": "[4]", "result": "−1.56"},
      {"measurement": "Aox1 mRNA fold change vs vehicle", "setting": "striatum, 7 hr after single 100 mg/kg oral dose", "result": 1.95},
      {"measurement": "Adamts9 mRNA fold change vs vehicle", "setting": "[5]", "result": "−2.58"},
      {"measurement": "Galnt12 mRNA fold change vs vehicle", "setting": "[5]", "result": 1.50},
      {"measurement": "Hrh3 mRNA fold change vs vehicle", "setting": "[5]", "result": 1.59},
      {"measurement": "Itpkb mRNA fold change vs vehicle", "setting": "[5]", "result": "−1.56"},
      {"measurement": "Pvrl3 mRNA fold change vs vehicle", "setting": "[5]", "result": "−1.80"},
      {"measurement": "St18 mRNA fold change vs vehicle", "setting": "[5]", "result": "−1.69"},
      {"measurement": "Tmprss6 mRNA fold change vs vehicle", "setting": "[5]", "result": 1.68}
    ]}
  ]
}
